Here are results for 17 molecules from patent publication US11339165B2, “Pyrazolopyrimidines having activity against the respiratory syncytial virus (RSV)” (priority 2017, dated 2022).

Bounds are passed on as bounds.

One data set relates to rgRSV224 virus. The experiment in a line: Antiviral activity: rgRSV224 (GFP) replication in HeLa cells. The note with it: human respiratory syncytial virus, HeLa, 72 h, read-out: RSV HELA EC50 (μM), rgRSV224 virus (MOI=1), HeLa cells, GFP expression three days post-virus exposure. It counts as cell-based, respiratory syncytial virus (RSV).
A short description of another data set: in vitro. The note with it: human, TOX HELA CC50 (μM).

Regarding `C[C@@H]1c2ccccc2CCN1C(=O)c1cc(C2CC2)n2nc(-c3ccc(N4CCCC(O)C4)cc3F)cc2n1` (stereo partly drawn) [Compound 75, 1-(4-{7-Cyclopropyl-5-[(1R)-1-methyl-1,2,3,4-tetrahydroisoquinoline-2-carbonyl]-pyrazolo[1,5-a]pyrimidin-2-yl}-3-fluorophenyl)piperidin-3-ol], the melting point (in general, the temperature of the solid-liquid transition) was 197.51 °C. The EC50 (in general, the concentration giving half of the maximal effect) in the data set on rgRSV224 virus stood at 0.076 µM. For the same molecule, in “in vitro”, the CC50 – broadly, the concentration giving 50% cytotoxicity – at 3 days was greater than 100 µM.
As to `C[C@@H]1c2ccccc2CCN1C(=O)c1cc(C2CC2)n2nc(-c3ccc(N4CC[C@H](C(N)=O)[C@H]4C)cc3F)cc2n1` (single isomer, unassigned) [Compound 81, (2*R,3*S)-1-(4-{7-Cyclopropyl-5-[(1R)-1-methyl-1,2,3,4-tetrahydroisoquinoline-2-carbonyl]pyrazolo[1,5-a]pyrimidin-2-yl}-3-fluorophenyl)-2-methylpyrrolidine-3-carboxamide], the melting point is 271.19 °C. Also, the EC50 with rgRSV224 virus stood at 0.099 µM. This molecule had a cytotoxic concentration (CC50) at 3 days in the data set “in vitro” of 38.4 µM.
`C[C@@H]1c2ccccc2CCN1C(=O)c1cc(C2CC2)n2nc(-c3ccc(N4CC[C@H](C(N)=O)C4)cc3F)cc2n1` [Compound 36, (3S)-1-(4-{7-Cyclopropyl-5-[(1R)-1-methyl-1,2,3,4-tetrahydroisoquinoline-2-carbonyl]pyrazolo[1,5-a]pyrimidin-2-yl}-3-fluorophenyl)pyrrolidine-3-carboxamide] gave a melting point of 237.7 °C. Further, the EC50 in the data set on rgRSV224 virus turned out to be 0.012 µM. The same molecule returned a half-maximal cytotoxic concentration (CC50) at 3 days in the data set “in vitro” of 29.3 µM.
`C[C@@H]1c2ccccc2CCN1C(=O)c1cc(C2CC2)n2nc(-c3ccc(N4CC[C@@H](C(N)=O)[C@H]4C)cc3F)cc2n1` (single isomer, unassigned) [Compound 80, (2*R,3*R)-1-(4-{7-Cyclopropyl-5-[(1R)-1-methyl-1,2,3,4-tetrahydroisoquinoline-2-carbonyl]pyrazolo[1,5-a]pyrimidin-2-yl}-3-fluorophenyl)-2-methylpyrrolidine-3-carboxamide] yielded a melting point of 182.93 °C. Also, the EC50 with rgRSV224 virus was found to be 0.091 µM. Besides, the CC50 at 3 days in the data set “in vitro” is 35.9 µM.
On the same counts, the results for `C[C@@H]1c2ccccc2CCN1C(=O)c1cc(C2CC2)n2nc(-c3ccc(N4CC[C@H](C(N)=O)[C@@H]4C)cc3F)cc2n1` (single isomer, unassigned) [Compound 83, (2*S,3*S)-1-(4-{7-Cyclopropyl-5-[(1R)-1-methyl-1,2,3,4-tetrahydroisoquinoline-2-carbonyl]pyrazolo[1,5-a]pyrimidin-2-yl}-3-fluorophenyl)-2-methylpyrrolidine-3-carboxamide] are 235.56 °C, 0.044 µM and 42.4 µM.
On the same counts, the results for `C[C@@H]1c2ccccc2CCN1C(=O)c1cc(C2CC2)n2nc(-c3cnc(N4CC[C@H](C(=O)NS(C)(=O)=O)C4)cc3F)cc2n1` [Compound 54, (3S)-1-(5-{7-Cyclopropyl-5-[(1R)-1-methyl-1,2,3,4-tetrahydroisoquinoline-2-carbonyl]-pyrazolo[1,5-a]pyrimidin-2-yl}-4-fluoropyridin-2-yl)-N-methanesulfonylpyrrolidine-3-carboxamide] are 254.46 °C, 0.192 µM and 77.4 µM.
The like results for `CNC(=O)CC1CN(c2ccc(-c3cc4nc(C(=O)N5CCc6ccccc6[C@H]5C)cc(C5CC5)n4n3)c(F)c2)C1` [Compound 66, 2-[1-(4-{7-Cyclopropyl-5-[(1R)-1-methyl-1,2,3,4-tetrahydroisoquinoline-2-carbonyl]-pyrazolo[1,5-a]pyrimidin-2-yl}-3-fluorophenyl)azetidin-3-yl]-N-methylacetamide] were, in that order, 143.13 °C, 0.04 µM and 36.4 µM.
As for `C[C@@H]1c2ccccc2CCN1C(=O)c1cc(C2CC2)n2nc(-c3ccc(N4C[C@H](C(N)=O)C[C@H]4C)cc3F)cc2n1` (single isomer, unassigned) [Compound 32, (3*R,5*R)-1-(4-{7-cyclopropyl-5-[(1R)-1-methyl-1,2,3,4-tetrahydroisoquinoline-2-carbonyl]pyrazolo[1,5-a]pyrimidin-2-yl}-3-fluorophenyl)-5-methylpyrrolidine-3-carboxamide], the melting point stood at 297.57 °C. Besides, in the data set with rgRSV224 virus, the EC50 amounted to 0.06 µM. This molecule registered a CC50 at 3 days in “in vitro” of 32.1 µM.
`C[C@@H]1c2ccccc2CCN1C(=O)c1cc(-c2ccccn2)n2nc(-c3ccc(N4CC[C@H](C(N)=O)C4)cc3F)cc2n1` [Compound 84, (3S)-1-(3-Fluoro-4-{5-[(1R)-1-methyl-1,2,3,4-tetrahydroisoquinoline-2-carbonyl]-7-(pyridin-2-yl)pyrazolo[1,5-a]pyrimidin-2-yl}phenyl)pyrrolidine-3-carboxamide] gave a melting point of 252.18 °C. Further, the EC50 in the data set with rgRSV224 virus was 0.006 µM. Also, in the data set “in vitro”, the midpoint of cytotoxicity, the CC50 at 3 days, lay at 19 µM.
`C[C@@H]1c2ccccc2CCN1C(=O)c1cc(C2CC2)n2nc(-c3cnc(N4CC[C@H](C(N)=O)C4)cc3F)cc2n1` [Compound 52, (3S)-1-(5-{7-Cyclopropyl-5-[(1R)-1-methyl-1,2,3,4-tetrahydroisoquinoline-2-carbonyl]-pyrazolo[1,5-a]pyrimidin-2-yl}-4-fluoropyridin-2-yl)pyrrolidine-3-carboxamide] returned a melting point of 246.17 °C. Moreover, in the data set on rgRSV224 virus, the EC50 came to 0.014 µM. This molecule showed a CC50 at 3 days in the data set “in vitro” of 41.3 µM.
On the same counts, the results for `C[C@@H]1c2ccccc2CCN1C(=O)c1cc(C2CC2)n2nc(-c3ccc(N4CC[C@@H](NS(C)(=O)=O)C4)cc3F)cc2n1` [Compound 11, N-[(3R)-1-(4-{7-Cyclopropyl-5-[(1R)-1-methyl-1,2,3,4-tetrahydroisoquinoline-2-carbonyl]pyrazolo[1,5-a]pyrimidin-2-yl}-3-fluorophenyl)pyrrolidin-3-yl]methane-sulfonamide] are 159.35 °C, 0.044 µM and greater than 100 µM.
On to `C[C@@H]1c2ccccc2CCN1C(=O)c1cc(C2CC2)n2nc(-c3ccc(N4CC[C@@H](C(N)=O)[C@@H]4C)cc3F)cc2n1` (single isomer, unassigned) [Compound 82, (2*S,3*R)-1-(4-{7-Cyclopropyl-5-[(1R)-1-methyl-1,2,3,4-tetrahydroisoquinoline-2-carbonyl]pyrazolo[1,5-a]pyrimidin-2-yl}-3-fluorophenyl)-2-methylpyrrolidine-3-carboxamide], for which the melting point came out at 294.89 °C. In addition, the EC50 in the data set with rgRSV224 virus is 0.033 µM. In the data set “in vitro”, this molecule had a CC50 at 3 days of 33.1 µM.
`C[C@@H]1c2ccsc2CCN1C(=O)c1cc(C2CC2)n2nc(-c3ccc(N4CC[C@H](CC(N)=O)C4)cc3F)cc2n1` (single isomer, unassigned) [Compound 42, 2-[(3R)-1-(4-{7-Cyclopropyl-5-[(4*R)-4-methyl-4,5,6,7-tetrahydro-thieno[3,2-c]pyridine-5-carbonyl]pyrazolo[1,5-a]pyrimidin-2-yl}-3-fluorophenyl)pyrrolidin-3-yl]acetamide] registered a melting point of 206.84 °C. Besides, the EC50 in the data set with rgRSV224 virus amounted to 0.025 µM. The molecule also came in with a CC50 at 3 days in the data set “in vitro” of 28.9 µM.
On the same counts, the results for `C[C@@H]1c2ccccc2CCN1C(=O)c1cc(C2CC2)n2nc(-c3ccc(N4CCC5(COC5)C4)cc3F)cc2n1` [Compound 5, (1R)-2-[7-Cyclopropyl-2-(2-fluoro-4-{2-oxa-6-azaspiro[3.4]octan-6-yl}phenyl)pyrazolo[1,5-a]pyrimidine-5-carbonyl]-1-methyl-1,2,3,4-tetrahydroisoquinoline] are 220.25 °C, 0.118 µM and greater than 25 µM.
In the case of `C[C@@H]1c2ccccc2CCN1C(=O)c1cc(C2CC2)n2nc(-c3ccc(N4CC[C@H](NC(=O)C(F)(F)F)C4)cc3F)cc2n1` [Compound 76, N-[(3S)-1-(4-{7-Cyclopropyl-5-[(1R)-1-methyl-1,2,3,4-tetrahydroisoquinoline-2-carbonyl]pyrazolo[1,5-a]pyrimidin-2-yl}-3-fluorophenyl)pyrrolidin-3-yl]-2,2,2-trifluoroacetamide], the melting point turned out to be 221.2 °C. In addition, in the data set on rgRSV224 virus, the half-maximal effective concentration (EC50) was 0.246 µM. Moreover, the CC50 at 3 days in the data set “in vitro” is greater than 100 µM.
Turning to `CNC(=O)[C@H]1CCN(c2cc(F)c(-c3cc4nc(C(=O)N5CCc6ccccc6[C@H]5C)cc(C5CC5)n4n3)cn2)C1` [Compound 53, (3S)-1-(5-{7-Cyclopropyl-5-[(1R)-1-methyl-1,2,3,4-tetrahydroisoquinoline-2-carbonyl]-pyrazolo[1,5-a]pyrimidin-2-yl}-4-fluoropyridin-2-yl)-N-methylpyrrolidine-3-carboxamide], the melting point amounted to 228.33 °C. Further, the EC50 with rgRSV224 virus came to 0.035 µM. This molecule also registered a 50% cytotoxic concentration (CC50) at 3 days in the data set “in vitro” greater than 100 µM.
Consider `C[C@@H]1c2ccccc2CCN1C(=O)c1cc(C2CC2)n2nc(-c3ccc(N4C[C@H](C(N)=O)C[C@@H]4C)cc3F)cc2n1` (single isomer, unassigned) [Compound 33, (3*R,5*S)-1-(4-{7-cyclopropyl-5-[(1R)-1-methyl-1,2,3,4-tetrahydroisoquinoline-2-carbonyl]pyrazolo[1,5-a]pyrimidin-2-yl}-3-fluorophenyl)-5-methylpyrrolidine-3-carboxamide], for which the melting point turned out to be 292.7 °C. In addition, the EC50 in the data set with rgRSV224 virus came out at 0.043 µM. This molecule also came in with a CC50 at 3 days in the data set “in vitro” of 34.5 µM.
